Measurements taken from ChEMBL document CHEMBL1152885 (Bioorg Med Chem Lett, 2009).

Tests used:
Carbonic anhydrase 1 = Carbonic anhydrase 1 (Homo sapiens, UniProt P00915)
Carbonic anhydrase 3 = Carbonic anhydrase 3 (Homo sapiens, UniProt P07451)
Carbonic anhydrase 4 = Carbonic anhydrase 4 (Homo sapiens, UniProt P22748)
[1] = target: Carbonic anhydrase 5B, mitochondrial (Homo sapiens, UniProt Q9Y2D0)
Carbonic anhydrase 6 = Carbonic anhydrase 6 (Homo sapiens, UniProt P23280)
Carbonic anhydrase 9 = Carbonic anhydrase 9 (Homo sapiens, UniProt Q16790)
Carbonic anhydrase 12 = Carbonic anhydrase 12 (Homo sapiens, UniProt O43570)
Chain of Carbonic anhydrase 12 (O43570 whole entry): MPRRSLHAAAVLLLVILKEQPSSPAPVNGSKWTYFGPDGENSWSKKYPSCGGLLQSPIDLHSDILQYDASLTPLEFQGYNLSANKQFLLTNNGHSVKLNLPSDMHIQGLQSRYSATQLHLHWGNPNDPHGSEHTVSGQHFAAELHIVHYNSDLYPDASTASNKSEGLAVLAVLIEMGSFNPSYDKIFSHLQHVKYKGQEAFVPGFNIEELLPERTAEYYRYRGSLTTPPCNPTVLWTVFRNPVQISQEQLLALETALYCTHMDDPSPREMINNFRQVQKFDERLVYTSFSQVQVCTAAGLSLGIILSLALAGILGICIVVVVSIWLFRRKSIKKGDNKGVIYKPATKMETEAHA

Carbonic anhydrase 13 = Carbonic anhydrase 13 (Mus musculus, UniProt Q9D6N1)
Chain of Carbonic anhydrase 13 (Q9D6N1 whole entry): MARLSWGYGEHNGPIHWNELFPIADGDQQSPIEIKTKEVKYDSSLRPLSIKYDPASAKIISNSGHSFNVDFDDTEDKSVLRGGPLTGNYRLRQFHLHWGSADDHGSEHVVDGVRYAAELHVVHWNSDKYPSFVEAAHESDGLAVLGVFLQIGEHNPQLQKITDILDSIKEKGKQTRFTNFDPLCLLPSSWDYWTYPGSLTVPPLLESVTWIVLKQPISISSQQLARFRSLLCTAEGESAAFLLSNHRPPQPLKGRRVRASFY

Carbonic anhydrase 14 = Carbonic anhydrase 14 (Homo sapiens, UniProt Q9ULX7)
Chain of Carbonic anhydrase 14 (Q9ULX7 whole entry): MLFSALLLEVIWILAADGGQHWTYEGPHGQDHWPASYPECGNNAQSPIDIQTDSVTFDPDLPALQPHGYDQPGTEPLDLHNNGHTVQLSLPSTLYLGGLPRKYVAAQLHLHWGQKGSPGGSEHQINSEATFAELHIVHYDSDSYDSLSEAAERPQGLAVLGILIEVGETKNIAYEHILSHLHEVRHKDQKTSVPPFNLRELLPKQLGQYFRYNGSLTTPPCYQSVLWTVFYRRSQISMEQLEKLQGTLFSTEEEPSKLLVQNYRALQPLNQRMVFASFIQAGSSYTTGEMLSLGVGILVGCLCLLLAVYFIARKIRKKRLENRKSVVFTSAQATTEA

Chain of Carbonic anhydrase 3 (P07451 whole entry): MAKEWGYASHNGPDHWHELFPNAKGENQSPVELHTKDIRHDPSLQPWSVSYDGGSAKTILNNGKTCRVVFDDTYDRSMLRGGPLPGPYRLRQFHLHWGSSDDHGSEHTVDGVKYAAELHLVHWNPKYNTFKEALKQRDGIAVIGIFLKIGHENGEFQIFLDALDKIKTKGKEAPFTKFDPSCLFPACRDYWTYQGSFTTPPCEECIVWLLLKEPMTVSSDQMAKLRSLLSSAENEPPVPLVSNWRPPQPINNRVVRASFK
Chain of Carbonic anhydrase 1 (P00915 whole entry): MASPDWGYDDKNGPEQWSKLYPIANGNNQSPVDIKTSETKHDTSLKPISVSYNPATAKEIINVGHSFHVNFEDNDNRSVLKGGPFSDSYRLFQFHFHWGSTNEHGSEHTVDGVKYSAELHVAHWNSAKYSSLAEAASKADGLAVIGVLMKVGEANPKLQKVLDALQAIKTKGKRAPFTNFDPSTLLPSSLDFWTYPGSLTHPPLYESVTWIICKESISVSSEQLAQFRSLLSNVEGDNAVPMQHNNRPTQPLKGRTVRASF
Chain of Carbonic anhydrase 5B, mitochondrial (Q9Y2D0 whole entry): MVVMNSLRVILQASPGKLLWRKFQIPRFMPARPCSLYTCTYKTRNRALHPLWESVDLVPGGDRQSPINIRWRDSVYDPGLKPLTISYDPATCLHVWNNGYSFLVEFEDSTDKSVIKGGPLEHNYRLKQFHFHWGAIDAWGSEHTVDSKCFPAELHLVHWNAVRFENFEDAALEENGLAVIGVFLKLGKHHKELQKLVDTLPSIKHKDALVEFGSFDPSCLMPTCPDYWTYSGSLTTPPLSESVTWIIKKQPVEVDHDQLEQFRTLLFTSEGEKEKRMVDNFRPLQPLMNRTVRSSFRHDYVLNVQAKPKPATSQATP
Chain of Carbonic anhydrase 4 (P22748 whole entry): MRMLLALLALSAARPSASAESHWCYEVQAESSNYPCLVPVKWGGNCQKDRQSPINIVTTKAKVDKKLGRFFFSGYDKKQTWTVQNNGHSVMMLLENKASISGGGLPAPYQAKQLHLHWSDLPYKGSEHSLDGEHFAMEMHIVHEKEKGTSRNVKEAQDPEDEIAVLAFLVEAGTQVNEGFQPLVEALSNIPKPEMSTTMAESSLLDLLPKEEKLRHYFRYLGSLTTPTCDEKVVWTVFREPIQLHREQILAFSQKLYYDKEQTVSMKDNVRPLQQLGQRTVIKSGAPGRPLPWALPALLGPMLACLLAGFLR
Chain of Carbonic anhydrase 6 (P23280 whole entry): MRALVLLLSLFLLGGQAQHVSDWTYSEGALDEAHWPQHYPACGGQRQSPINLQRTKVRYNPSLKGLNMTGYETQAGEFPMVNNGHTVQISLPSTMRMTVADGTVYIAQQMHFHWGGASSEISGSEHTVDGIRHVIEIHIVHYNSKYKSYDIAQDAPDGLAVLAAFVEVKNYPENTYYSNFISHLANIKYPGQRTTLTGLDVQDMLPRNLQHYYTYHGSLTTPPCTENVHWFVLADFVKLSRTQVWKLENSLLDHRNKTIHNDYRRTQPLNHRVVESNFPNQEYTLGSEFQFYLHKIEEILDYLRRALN

Ki (Carbonic anhydrase 1): 50.9 nM | Ki (Carbonic anhydrase 3): 34500 nM | Ki (Carbonic anhydrase 4): 48.9 nM | Ki [1]: 40.9 nM | Ki (Carbonic anhydrase 6): 25 nM | Ki (Carbonic anhydrase 9): 6.4 nM | Ki (Carbonic anhydrase 12): 17.8 nM | Ki (Carbonic anhydrase 13): 4850 nM | Ki (Carbonic anhydrase 14): 424 nM
Structure (SMILES): NS(=O)(=O)c1ccc2[nH]c(-c3cscn3)nc2c1
